Experimental data as given in US20250248979A1, “NOVEL GPX4 INHIBITORS AND USES THEREOF” (THE TRUSTEES OF COLUMBIA UNIVERSITY IN THE CITY OF NEW YORK, priority 2022, published 2025).
Substitutions are numbered along the chain they refer to.

What was measured:
in vitro = conditions: human, plasma
GPX1 [1] = target: T1, GPX1 (Homo sapiens, UniProt P07203); assay: GPX1 activity assay in cell lysates; assay type: biochemical; set-up: endogenous in cells; host or cells: A-673 cell lysate
T1 sequence (P07203 1-203): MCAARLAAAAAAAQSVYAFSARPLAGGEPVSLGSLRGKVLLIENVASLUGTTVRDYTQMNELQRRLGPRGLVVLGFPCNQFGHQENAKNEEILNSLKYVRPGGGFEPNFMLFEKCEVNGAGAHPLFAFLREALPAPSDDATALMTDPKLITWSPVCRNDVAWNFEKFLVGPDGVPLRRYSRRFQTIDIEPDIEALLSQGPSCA
Procedure: Determination of GPX1 activity in cell lysates was performed as previously described by Stolwijk et al. with some modifications (Stolwijk et al. 2020). GPX1 and GPX4 activity were not evaluated simultaneously in the same assay as in the published protocol to maximize signal-to-noise with the GPX1 substrate. Again, NADPH consumption, as determined by the reduction in the absorbance at 340 nm, over time was monitored as a proxy for GPX1 activity, which, like GPX4, reduces its substrates using glutathione as a reductant. 100 μM hydrogen peroxide was selected as the GPX1 substrate in this assay. A-673 cell lysates and assay setup were performed as above for the GPX4 activity assay. All conditions were tested in triplicate. Buffer-only controls and controls without substrate containing only Milli-Q water vehicle were performed to assess background and baseline signal. GPX1 activity was calculated as reported by Stolwijk et al. 2020 and results were analyzed in GraphPad Prism 9.

PC9 cells = assay: cells; conditions: Homo sapiens, PC-9, 48 h, read-out: % Viability PC9
GFP-GPX4^K125R_K127R = target: T2, GFP-GPX4^K125R_K127R (Homo sapiens, UniProt P36969, K152R/K154R); assay: Degradation of GFP-GPX4^K125R_K127R in HT-1080 cells; assay type: cell-based
T2 construct: expressed in transfected cells
T2 sequence (P36969 28-197 K152R/K154R): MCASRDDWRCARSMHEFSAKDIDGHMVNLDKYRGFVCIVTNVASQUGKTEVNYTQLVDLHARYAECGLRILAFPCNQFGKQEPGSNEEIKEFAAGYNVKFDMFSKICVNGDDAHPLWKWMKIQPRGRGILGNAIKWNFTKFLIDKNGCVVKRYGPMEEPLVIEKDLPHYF

GPX1 [2] = target: T1, GPX1; assay: Degradation of endogenous GPX1 in HT-1080 cells; assay type: cell-based; set-up: endogenous in cells
GPX4^U46C = target: T3, GPX4^U46C (Homo sapiens, UniProt P36969, U73C); assay: Intact protein MALDI MS analysis; assay type: binding; conditions: 150 μM
T3 construct: made in house; host or cells: E. coli BL21-Gold (DE3)
T3 sequence (P36969 1-170 isoform P36969-2 U46C): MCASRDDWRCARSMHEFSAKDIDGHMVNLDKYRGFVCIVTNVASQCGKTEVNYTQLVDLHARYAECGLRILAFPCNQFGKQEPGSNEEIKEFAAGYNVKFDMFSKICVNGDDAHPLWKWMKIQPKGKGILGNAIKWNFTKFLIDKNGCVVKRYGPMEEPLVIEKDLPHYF

GPX4 = target: T4, GPX4 (Homo sapiens, UniProt P36969); assay: Cellular thermal shift assay (CETSA), GPX4; assay type: cell-based; set-up: To prepare the cell lysate containing native GPX4, A-673 cells were cultured; endogenous in cells; host or cells: A-673 cell lysate; conditions: 10 μM compound for 1 h
T4 sequence (P36969 1-170 isoform P36969-2): T3 sequence (P36969 1-170 isoform P36969-2 U46C) with C46U

GFP-GPX4^WT = target: T5, GFP-GPX4^WT (Homo sapiens, UniProt P36969); assay: Degradation of GPX4 and GFP-GPX4^WT with MG-132; assay type: cell-based; conditions: 1.0 μM ± MG-132 (10 μM), 18 hours
T5 construct: expressed in transfected cells; host or cells: HT-1080 overexpressing GFP-GPX4^WT
T5 sequence (P36969 28-197): as the sequence (P36969 28-197 K152R/K154R) above, with R125K, R127K counted along it

`COc1cccc2[nH]c(C(=O)n3ccnc3)cc12` [LOC1886, reference compound] gave a half-life (in vitro) of 10.8 min.
For `CC(C)(COC(=O)CCl)NC(=O)c1cc2ccc(Br)cc2[nH]1` [QW-156], the GPX1 inhibition (GPX1 [1]; 200 μM) was “approximately 30%”.
With `Cn1nc(C(=O)NC(C)(C)COC(=O)CCl)c2ccc(Br)cc21` [QW-314] the “GPX1 activity assay effect” value (GPX1 [1]) was “no inhibitory effect”, the “selectivity for GPX4 over GPX1, result in words” value (GPX1 [1]) was “high selectivity for GPX4 over GPX1” and the half-life (in vitro) was 2.3 min. For the same molecule, the viability at 10 µM (PC9 cells) was 62%.
With `CC(C)(COC(=O)CCl)NC(=O)c1nn(Cc2cc(Cl)cc(Cl)c2)c2cc(-c3ccc(N4CCOCC4)c(Cl)c3)ccc12` [QW-852] the “degradation of GFP-GPX4^K125R_K127R” value (GFP-GPX4^K125R_K127R) was “but not by QW-852”, the GPX1 degradation (GPX1 [2]) was “less effective at degrading GPX1” and the “covalent binding to GPX4^U46C (mass shift)” value (GPX4^U46C) was “lower potency than RSL3 to covalently bind to GPX4^U46C”. The “selectivity in cancer cells compared to PBMCs” value (PBMCs) was “Over 10 fold”, the “thermal stability of GPX4” value (GPX4) was “stabilizing the protein” and the “GPX4 degradation with MG-132” value (GFP-GPX4^WT) was “effectively blocked by MG-132”.
